Positions of bridges follow the written chain, without caps; N, C: chain ends. Non-standard residues stand in square brackets, D forms with d. Residues, ends and D or L forms follow the SMILES beside them. *: point of attachment. hPhe(3-Cl-4-CF3) = N[C@@H](CCc1ccc(C(F)(F)F)c(Cl)c1)C(=O)O; NMePhe(3-CF3) = CN[C@@H](Cc1cccc(C(F)(F)F)c1)C(=O)O; NMePhe(3-Br) = CN[C@@H](Cc1cccc(Br)c1)C(=O)O; NMePhe(2-Cl) = CN[C@@H](Cc1ccccc1Cl)C(=O)O; NMePhe(2-F) = CN[C@@H](Cc1ccccc1F)C(=O)O; NMeCha = CN[C@@H](CC1CCCCC1)C(=O)O; NMehLeu = CN[C@@H](CCC(C)C)C(=O)O; NMeChg = CN[C@H](C(=O)O)C1CCCCC1; NMeD = CN[C@@H](CC(=O)O)C(=O)O; NMeL = CN[C@@H](CC(C)C)C(=O)O; NMeV = CN[C@H](C(=O)O)C(C)C; d(β3hA) = C[C@@H](N)CC(=O)O; NMeA = CN[C@@H](C)C(=O)O; Piperidide = C1CCN(*)CC1; Ac5c = NC1(C(=O)O)CCCC1; Aze = O=C(O)[C@@H]1CCN1; Sar = CNCC(=O)O
Target: T1, Kras and SOS1 (biotin-tagged human Kras loaded with GDP, His-tagged human SOS1) (Homo sapiens, UniProt P01116, G12D)
T1 construct: made in house; host or cells: E. coli (stated for Kras only)
T1 sequence (P01116 1-188 isoform P01116-2 G12D): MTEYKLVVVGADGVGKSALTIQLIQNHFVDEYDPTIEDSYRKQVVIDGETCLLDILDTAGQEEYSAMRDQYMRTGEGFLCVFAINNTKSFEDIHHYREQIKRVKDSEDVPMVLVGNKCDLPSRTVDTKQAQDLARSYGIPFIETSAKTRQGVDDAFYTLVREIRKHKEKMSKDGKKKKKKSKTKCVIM
Test: Protein-protein interaction inhibition between Kras and SOS1 (KrasGl2D-SOS PPI) using AlphaScreen
Type: binding
Conditions: AlphaScreen; biotin-tagged human Kras loaded with GDP, His-tagged human SOS1; read-out: KRAS G12D-SOS PPI IC50
Outline: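 Kras was produced in E. coli, purified, then loaded with GDP. It was paired via streptavidin acceptor beads with His-SOS1 held on nickel donor beads, and proximity signal at 520-620 nm was read after 680 nm illumination.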

`CC[C@H](C)[C@@H]1NC(=O)[C@H](CC(C)C)N(C)C(=O)C[C@@H](C)NC(=O)[C@H](C(C)C)N(C)C(=O)C2(CCCC2)NC(=O)[C@@H]2CCCN2C(=O)[C@H](CCc2ccc(C(F)(F)F)c(Cl)c2)NC(=O)CN(C)C(=O)[C@H](Cc2cccc(C(F)(F)F)c2)N(C)C(=O)CN(C)C(=O)CN(C)C1=O` [Compound 1575] (cyclo([Ac5c][NMeV][d(β3hA)][NMeL]I[Sar][Sar][NMePhe(3-CF3)][Sar][hPhe(3-Cl-4-CF3)]P)) and `CC[C@H](C)[C@@H]1NC(=O)[C@H](CC(C)C)N(C)C(=O)C[C@@H](C)NC(=O)[C@H](C(C)C)N(C)C(=O)C2(CCCC2)NC(=O)[C@@H]2CCCN2C(=O)[C@H](CCc2ccc(C(F)(F)F)c(Cl)c2)NC(=O)CN(C)C(=O)[C@H](Cc2cccc(Br)c2)N(C)C(=O)CN(C)C(=O)CN(C)C1=O` [Compound 1587] (cyclo([Ac5c][NMeV][d(β3hA)][NMeL]I[Sar][Sar][NMePhe(3-Br)][Sar][hPhe(3-Cl-4-CF3)]P)) are within 1.5-fold of each other in IC50: 45 nM for the first, 31 nM for the second.

Compared with `CC[C@H](C)[C@@H]1NC(=O)[C@H](CC(C)C)N(C)C(=O)C[C@@H](C(=O)N2CCCCC2)N(C)C(=O)[C@H](C(C)C)N(C)C(=O)C2(CCCC2)NC(=O)[C@@H]2CCCN2C(=O)[C@H](CCc2ccc(C(F)(F)F)c(Cl)c2)NC(=O)CN(C)C(=O)[C@H](CC2CCCCC2)N(C)C(=O)[C@@H]2CCN2C(=O)[C@H](CCC(C)C)N(C)C1=O` [Compound 1577] ([NMeL]I[NMehLeu][Aze][NMeCha][Sar][hPhe(3-Cl-4-CF3)]P[Ac5c][NMeV][NMeD]-Piperidide; lactam N-11), `CC[C@H](C)[C@@H]1NC(=O)[C@H](C)N(C)C(=O)C[C@@H](C(=O)N2CCCCC2)N(C)C(=O)[C@H](C(C)C)N(C)C(=O)C2(CCCC2)NC(=O)[C@@H]2CCCN2C(=O)[C@H](CCc2ccc(C(F)(F)F)c(Cl)c2)NC(=O)CN(C)C(=O)[C@H](CC2CCCCC2)N(C)C(=O)[C@@H]2CCN2C(=O)[C@H](CCC(C)C)N(C)C1=O` [Compound 1595] ([NMeA]I[NMehLeu][Aze][NMeCha][Sar][hPhe(3-Cl-4-CF3)]P[Ac5c][NMeV][NMeD]-Piperidide; lactam N-11) is 3.3-fold lower in IC50: 50 nM for the first, 15 nM for the second. The second is the more potent here.

Compared with `CC[C@H](C)[C@@H]1NC(=O)[C@H](C)N(C)C(=O)C[C@@H](C(=O)N2CCCCC2)N(C)C(=O)[C@H](C(C)C)N(C)C(=O)C2(CCCC2)NC(=O)[C@@H]2CCCN2C(=O)[C@H](CCc2ccc(C(F)(F)F)c(Cl)c2)NC(=O)CN(C)C(=O)[C@H](CC2CCCCC2)N(C)C(=O)[C@@H]2CCN2C(=O)[C@H](CC2CCCCC2)N(C)C1=O` [Compound 1580] ([NMeA]I[NMeCha][Aze][NMeCha][Sar][hPhe(3-Cl-4-CF3)]P[Ac5c][NMeV][NMeD]-Piperidide; lactam N-11), `CC[C@H](C)[C@@H]1NC(=O)[C@H](CC(C)C)N(C)C(=O)C[C@@H](C(=O)N2CCCCC2)N(C)C(=O)[C@H](C(C)C)N(C)C(=O)C2(CCCC2)NC(=O)[C@@H]2CCCN2C(=O)[C@H](CCc2ccc(C(F)(F)F)c(Cl)c2)NC(=O)CN(C)C(=O)[C@H](CC2CCCCC2)N(C)C(=O)[C@@H]2CCN2C(=O)[C@H](C2CCCCC2)N(C)C1=O` [Compound 1600] ([NMeL]I[NMeChg][Aze][NMeCha][Sar][hPhe(3-Cl-4-CF3)]P[Ac5c][NMeV][NMeD]-Piperidide; lactam N-11) is 28-fold higher in IC50: 11 nM for the first, 310 nM for the second.

Going from `CC[C@H](C)[C@@H]1NC(=O)[C@H](CC(C)C)N(C)C(=O)C[C@@H](C)NC(=O)[C@H](C(C)C)N(C)C(=O)C2(CCCC2)NC(=O)[C@@H]2CCCN2C(=O)[C@H](CCc2ccc(C(F)(F)F)c(Cl)c2)NC(=O)CN(C)C(=O)[C@H](CC2CCCCC2)N(C)C(=O)[C@@H]2CCN2C(=O)[C@H](CC2CCCCC2)N(C)C1=O` [Compound 1581] (cyclo([Ac5c][NMeV][d(β3hA)][NMeL]I[NMeCha][Aze][NMeCha][Sar][hPhe(3-Cl-4-CF3)]P)) to `CC[C@H](C)[C@@H]1NC(=O)[C@H](CC(C)C)N(C)C(=O)C[C@@H](C)NC(=O)[C@H](C(C)C)N(C)C(=O)C2(CCCC2)NC(=O)[C@@H]2CCCN2C(=O)[C@H](CCc2ccc(C(F)(F)F)c(Cl)c2)NC(=O)CN(C)C(=O)[C@H](Cc2ccccc2F)N(C)C(=O)CN(C)C(=O)CN(C)C1=O` [Compound 1585] (cyclo([Ac5c][NMeV][d(β3hA)][NMeL]I[Sar][Sar][NMePhe(2-F)][Sar][hPhe(3-Cl-4-CF3)]P)), the IC50 falls from 230 nM to 43 nM (5.3-fold).

Going from `CC[C@H](C)[C@@H]1NC(=O)[C@H](CC(C)C)N(C)C(=O)C[C@@H](C)NC(=O)[C@H](C(C)C)N(C)C(=O)C2(CCCC2)NC(=O)[C@@H]2CCCN2C(=O)[C@H](CCc2ccc(C(F)(F)F)c(Cl)c2)NC(=O)CN(C)C(=O)[C@H](COc2ccccc2Cl)N(C)C(=O)CN(C)C(=O)CN(C)C1=O` [Compound 1582] to `CC[C@H](C)[C@@H]1NC(=O)[C@H](CC(C)C)N(C)C(=O)C[C@@H](C)NC(=O)[C@H](C(C)C)N(C)C(=O)C2(CCCC2)NC(=O)[C@@H]2CCCN2C(=O)[C@H](CCc2ccc(C(F)(F)F)c(Cl)c2)NC(=O)CN(C)C(=O)[C@H](Cc2ccccc2Cl)N(C)C(=O)CN(C)C(=O)CN(C)C1=O` [Compound 1591] (cyclo([Ac5c][NMeV][d(β3hA)][NMeL]I[Sar][Sar][NMePhe(2-Cl)][Sar][hPhe(3-Cl-4-CF3)]P)), the IC50 rises from 35 nM to 97 nM (2.8-fold). The first is the more potent here.
